From patent US9145412B2, “Selective HDAC1 and HDAC2 inhibitors” (Acetylon Pharmaceuticals, Inc., priority 2012, dated 2015)

Experiments:
[1] = target: HDAC3 (Homo sapiens (Human), UniProt O15379); experiment: HDAC enzyme assay; assay type: biochemical; conditions: enzyme pre-incubated with compound for 24 hours
Method: (§1) Compounds for testing were diluted in DMSO to 50 fold the final concentration and a ten point three fold dilution series was made. The compounds were diluted in assay buffer (50 mM HEPES, pH 7.4, 100 mM KCl, 0.001% Tween-20, 0.05% BSA, 20 μM tris(2-carboxyethyl)phosphine) to 6 fold their final concentration. The HDAC enzymes (purchased from BPS Biosciences) were diluted to 1.5 fold their final concentration in assay buffer and pre-incubated with the compounds for 24 hours prior to addition of the substrate.
(§2) The substrate tripeptide substrate 3 (synthesized in house) for each enzyme was equal to the Km as determined by a substrate titration curve. The substrates were diluted in assay buffer at 6× their final concentration with 0.3 μM sequencing grade trypsin (Sigma). The substrate/trypsin mix was added to the enzyme/compound mix, the plate was shaken for 60 seconds and placed into a Spectramax M5 microtiter plate reader. The development of fluorescence was monitored for […] and the linear rate of the reaction was calculated. The IC50 was determined using Graph Pad Prism by a four parameter curve fit. The IC50 values obtained for the compounds of this invention are found in Table 1.

[2] = target: HDAC2 (Homo sapiens (Human), UniProt Q92769); experiment: HDAC enzyme assay; assay type: biochemical; conditions: enzyme pre-incubated with compound for 24 hours
HDAC2, sequence (Q92769 whole entry): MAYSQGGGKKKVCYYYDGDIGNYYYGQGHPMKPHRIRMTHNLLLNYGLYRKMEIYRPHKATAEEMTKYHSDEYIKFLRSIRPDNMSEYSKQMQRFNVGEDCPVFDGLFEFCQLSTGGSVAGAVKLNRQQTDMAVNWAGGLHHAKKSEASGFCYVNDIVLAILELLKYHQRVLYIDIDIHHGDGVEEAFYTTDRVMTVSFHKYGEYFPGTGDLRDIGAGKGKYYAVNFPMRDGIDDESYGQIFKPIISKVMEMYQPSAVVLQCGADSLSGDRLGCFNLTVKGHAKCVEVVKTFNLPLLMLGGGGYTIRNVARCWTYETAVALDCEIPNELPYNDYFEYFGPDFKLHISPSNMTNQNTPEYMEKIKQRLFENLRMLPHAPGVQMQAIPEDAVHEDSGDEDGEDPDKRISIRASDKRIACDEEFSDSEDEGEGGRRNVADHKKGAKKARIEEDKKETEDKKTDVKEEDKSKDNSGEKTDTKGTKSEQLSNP
Method: as §1, §2

[3] = target: HDAC1 (Homo sapiens (Human), UniProt Q13547); experiment: HDAC enzyme assay; assay type: biochemical; conditions: enzyme pre-incubated with compound for 24 hours
HDAC1, sequence (Q13547 whole entry): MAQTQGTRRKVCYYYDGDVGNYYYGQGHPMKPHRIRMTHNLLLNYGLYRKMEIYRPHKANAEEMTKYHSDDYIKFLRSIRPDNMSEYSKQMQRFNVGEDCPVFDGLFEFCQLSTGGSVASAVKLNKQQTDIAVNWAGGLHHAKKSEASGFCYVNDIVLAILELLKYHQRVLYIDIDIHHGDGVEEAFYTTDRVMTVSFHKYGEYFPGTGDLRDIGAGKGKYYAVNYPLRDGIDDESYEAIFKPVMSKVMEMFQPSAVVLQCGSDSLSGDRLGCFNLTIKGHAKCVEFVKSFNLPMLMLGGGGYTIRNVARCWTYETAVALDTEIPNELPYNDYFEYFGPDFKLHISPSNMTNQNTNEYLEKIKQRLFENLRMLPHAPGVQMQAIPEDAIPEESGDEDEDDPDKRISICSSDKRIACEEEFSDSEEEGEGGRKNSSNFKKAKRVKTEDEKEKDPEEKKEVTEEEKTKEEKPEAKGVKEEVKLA
Method: as §1, §2

[4] = tested on: human CD34+ bone marrow cells; experiment: Fetal globin (HbG) induction in cultured CD34+ cells undergoing erythroid differentiation; assay type: cell-based; conditions: for increase in the percentage of HbG relative to other beta-like globin transcripts: 1 μM, treatment of cells for 6 days
Method: CD34+ cells isolated from human bone marrow were cultured in vitro using two distinct sets of culture conditions. Culture system 1 (CS1), described by Xu J et al. (Science 2011 Nov. 18; 334(6058):993-6), consists of a 7 day expansion phase in media that supports hematopoietic progenitor cells followed by a differentiation phase of 4 to 8 days in media that induces development of erythroid lineage cells. Culture system 2 (CS2), described by Bradner J E (Proc Natl Acad Sci USA. 2010 Jul. 13; 107(28):12617-22), consists of a 7 day expansion phase in media that supports differentiation of cells towards the erythroid lineage followed by a differentiation phase for 3 days where erythroid cell development continues. After 3 to 5 days in differentiation media CS1 cells are primarily early erythroblasts (EB), while CS2 cells are primarily late EB. mRNA levels were determine by quantitative real time PCR using primer/probe sets designed to adult major β-globin (β), adult minor β-globin (δ), fetal β-like globin (HbG, γ), and embryonic β-like globin (ε). Protein levels were determined by flow cytometry using fluorescent antibodies against fetal hemoglobin (HbF) or adult hemoglobin (HbA). […] Globin mRNA levels were determined in cells at day 0, 3, 5, and 8 of differentiation. […] Globin mRNA levels were determined at day 3 of differentiation. […] Hemoglobin protein levels within each cell were determined at day 5 of differentiation. […] After 2 days, media was exchanged and cells were differentiated for an additional 2 days in the absence of compound. Hemoglobin protein levels within each cell were determined at day 4 of differentiation.
(§3) To investigate whether HDAC1 or HDAC2 was the preferred therapeutic target, two compounds were used.

[5] = tested on: human CD34+ bone marrow cells; experiment: Cell viability / cytotoxicity in cultured CD34+ cells; assay type: cell-based; conditions: 1 μM, after 6 days of treatment
From the text: as §3

[6] = tested on: early erythroblasts (CD71+, GlyA−); experiment: Gene expression profiling, Affymetrix PrimeView GeneChips; assay type: cell-based; conditions: n=3 vs vehicle
From the text: (§4) Significant enrichment in other gene sets involving targets linked to HbG regulation, including lysine-specific demethylase 1 (LSD1) (Shi L, Nature Medicine, 2012) were identified.

[7] = tested on: late erythroblasts (CD71+, GlyA+); experiment: as above; assay type: cell-based
From the text: as §4

[8] = tested on: Sox6 mRNA; experiment: GeneChip and quantitative real-time PCR time course; assay type: cell-based
From the text: (§5) ChIP-seq data, both by itself and in combination with gene expression data, will provide further insight into the mechanism through which HDAC1/2 regulates HbF synthesis.

[9] = tested on: Klf2 mRNA; experiment: as above; assay type: cell-based
From the text: as §5

[10] = tested on: Bcl11A mRNA; experiment: as above; assay type: cell-based
From the text: as §5

[11] = tested on: Gata2 mRNA; experiment: as above; assay type: cell-based
From the text: as §5

[12] = tested on: human CD34+ bone marrow cells; experiment: Erythroid differentiation markers CD71 and glycophorinA; assay type: cell-based; conditions: 1 μM, 6 days
From the text: as §3

HDAC3, sequence (O15379 whole entry): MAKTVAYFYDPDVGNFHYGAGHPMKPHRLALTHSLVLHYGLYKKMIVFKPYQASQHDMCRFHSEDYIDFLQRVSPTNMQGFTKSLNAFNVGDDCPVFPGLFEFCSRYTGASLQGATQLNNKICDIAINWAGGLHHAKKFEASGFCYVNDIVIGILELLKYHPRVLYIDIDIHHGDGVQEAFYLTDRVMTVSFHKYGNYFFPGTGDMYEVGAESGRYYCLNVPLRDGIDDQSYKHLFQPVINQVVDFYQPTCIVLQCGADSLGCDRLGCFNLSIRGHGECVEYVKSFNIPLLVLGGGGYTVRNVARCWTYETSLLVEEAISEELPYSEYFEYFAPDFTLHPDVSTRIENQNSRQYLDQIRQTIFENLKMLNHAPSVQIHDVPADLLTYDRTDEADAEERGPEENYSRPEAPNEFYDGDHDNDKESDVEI
HDAC3, sequence (Q9Y618 395-489 partner): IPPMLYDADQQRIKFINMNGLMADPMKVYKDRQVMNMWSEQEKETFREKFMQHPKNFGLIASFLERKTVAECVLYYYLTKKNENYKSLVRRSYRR

## Nc1ccc(-c2cccs2)cc1NC(=O)c1ccc2nc(N3CCNCC3)ccc2c1 [Compound 001, N-(2-amino-5-(thiophen-2-yl)phenyl)-2-(piperazin-1-yl)quinoline-6-carboxamide]
[1]
  IC50: 114 nM
[2]
  IC50: 15 nM
[3]
  IC50: 4 nM
[4]
  increase in the percentage of HbG relative to other beta-like globin transcripts: 3 fold
[4]; follow-up experiments, CD71+ GlyA+ cells
  HbG induction in cells positive for both CD71 and GlyA: unable to induce HbG
[5]
  decrease in cell viability: approximately 3 fold
[6]
  probe sets down regulated: 681
  probe sets up regulated: 1294
[7]
  total probe set changes: 255
[8]
  decrease in Sox6 mRNA: 10 fold
[9]
  increase in Klf2 mRNA: 2 fold
[10]
  decrease in Bcl11A mRNA: 2 fold
[11]
  increase in Gata2 mRNA: 8 fold
[12]
  cells positive for the erythroid differentiation markers CD71 and glycophorinA: reduction

## Nc1ccc(-c2ccncc2)cc1NC(=O)c1ccc2c(c1)cc(C1CC1)n2CCN1CCOCC1 [Compound 004, N-(2-amino-5-(pyridin-4-yl)phenyl)-2-cyclopropyl-1-(2-morpholinoethyl)-1H-indole-5-carboxamide]
[1]
  IC50: 247 nM
[2]
  IC50: 24 nM
[3]
  IC50: 27 nM
[4]
  increase in the percentage of HbG relative to other beta-like globin transcripts: 3 fold
[5]
  decrease in cell viability: 1.2 fold
